In paper PMC7724566, “Prospects for Clinical Development of Stat5 Inhibitor IST5-002: High Transcriptomic Specificity in Prostate Cancer and Low Toxicity In Vivo” (Cancers, 2020):

Key:
[1] = tested on: Stat5; experiment: Stat5 phosphorylation in K562 cells (immunoblot); type: cell-based, human; conditions: 4 days
Method: In order to evaluate whether the phosphate group of IST5 is critical for IST5 activity in cell-based assays, we compared the potency of IST5 (Figure 4A) to that of IST5-M (IST5 without the phosphate group) (Figure 4B) in inhibiting phosphorylation of Stat5 in PC and CML cells. CML (K562) cells and PC (CWR22Rv1) cells were cultured for 4 days with increasing concentrations of IST5 and IST5-M (Figure 4C,D). […] Collectively, these finding indicate that IST5 and IST5-M have similar efficacies in inhibiting phosphorylation of Stat5 in both CML and PC cells.
Figure 4 IST5 and the IST5-derivative lacking the phosphate group (IST5-M), both, inhibit Stat5 phosphorylation in CML and prostate cancer cell line with high efficacy. (A), chemical structure of IST5-002 (IST5). (B), chemical structure of IST5-M (IST5 without the phosphate group. (C), IST5 and IST5-M both inhibit Stat5 phosphorylation in CML cells (K562) with high efficacy. K562 cells were treated with IST5 and IST5-M for 4 days at the concentrations indicated. Whole cell lysates (WCL) were immunoblotted with anti-pYStat5 mAb, anti-Stat5 mAb and anti-actin mAb as loading control. (D), IST5 and IST5-M, both, decrease Stat5 phosphorylation in PC cells (CWR22Rv1). CWR22Rv1 cells were treated with increasing concentrations of IST5 and IST5-M for 4 days. Stat5 was immunoprecipitated (IP) followed by immunoblotting (WB) with anti-pYStat5 mAb and anti-Stat5 mAb. Whole cell lysates (WCL) were immunoblotted with anti-actin mAb as loading control.
Cell pellets were solubilized in the lysis buffer (10 mM Tris-HCl (pH 7.6), 5 mM EDTA, 50 mM sodium chloride, 30 mM sodium pyrophosphate, 50 mM sodium fluoride, 1 mM sodium orthovanadate, 1% Triton X-100, 1 mM phenylmethylsulfonyl fluoride, 5 µg/mL aprotinin, 1 µg/mL pepstatin A and 2 µg/mL leupeptin), and protein concentrations of clarified cell lysates were determined by a simplified Bradford method (Bio-Rad, Hercules, CA, USA). The whole cell lysates were immunoprecipitated with polyclonal antibodies (Table S1) followed by incubation with protein A-Sepharose beads (GE Healthcare, Chicago, IL, USA). The cell lysates and immunoprecipitated proteins were separated on 4–12% SDS-PAGE (Life Technologies, Brown Deer, WI, USA) and transferred electrophoretically to polyvinylidene fluoride membrane (Millipore). For immunoblotting, blocking buffer was tris-buffered saline and tween 20 (TBST, 0.15 M NaCl; 0.1% Tween 20; 50 mM Tris, pH 8.0) with 3% bovine serum albumin (BSA). The immunoreaction with the specific antibodies (Table S1) was detected by horseradish peroxidase-conjugated secondary antibodies followed by enhanced chemiluminescence (GE Healthcare).

[2] = target: T1, TRKC (Homo sapiens, UniProt Q16288); experiment: Kinase Seeker luminescence cell-free assay; type: binding; conditions: percent activity of kinase after exposure to IST5 1 µM
T1 construct: purchased Reaction Biology (JAK1/2/3, TYK2); Luceome Biotechnologies KinaseSeeker (others)
T1 sequence (Q16288 32-839): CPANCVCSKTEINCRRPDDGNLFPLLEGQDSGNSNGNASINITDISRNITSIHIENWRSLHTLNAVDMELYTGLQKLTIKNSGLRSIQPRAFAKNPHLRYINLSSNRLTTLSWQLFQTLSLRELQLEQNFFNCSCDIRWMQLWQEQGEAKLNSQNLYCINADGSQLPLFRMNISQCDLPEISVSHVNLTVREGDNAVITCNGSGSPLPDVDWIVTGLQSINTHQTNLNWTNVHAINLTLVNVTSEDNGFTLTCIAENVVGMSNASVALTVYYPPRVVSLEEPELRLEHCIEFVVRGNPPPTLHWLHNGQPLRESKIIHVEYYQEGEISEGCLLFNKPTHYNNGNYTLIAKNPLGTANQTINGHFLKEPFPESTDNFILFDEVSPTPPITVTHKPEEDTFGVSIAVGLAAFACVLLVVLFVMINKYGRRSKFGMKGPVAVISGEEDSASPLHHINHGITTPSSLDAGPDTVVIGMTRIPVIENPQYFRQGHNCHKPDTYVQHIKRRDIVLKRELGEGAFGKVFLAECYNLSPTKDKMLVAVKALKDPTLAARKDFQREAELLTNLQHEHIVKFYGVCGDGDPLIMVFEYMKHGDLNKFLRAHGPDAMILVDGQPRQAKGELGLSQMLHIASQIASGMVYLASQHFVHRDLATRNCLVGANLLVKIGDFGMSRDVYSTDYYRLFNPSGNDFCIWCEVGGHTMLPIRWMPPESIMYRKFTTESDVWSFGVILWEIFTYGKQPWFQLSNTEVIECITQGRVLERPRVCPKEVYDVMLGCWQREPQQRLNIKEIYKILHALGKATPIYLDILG
Method: (§1) For Jak1, Jak2, Jak3 and Tyk2, a radiometric filtration binding assay was conducted by Reaction Biologicals (Malvern, PA, USA) (Table 1). This radiometric assay is a cell-free assay which is based on conventional filter-binding assays, directly measuring kinase catalytic activity toward a specific substrate. For evaluation of the activity of the other kinases, the Kinase Seeker Technology was utilized (Luceome Biotechnologies, Tucson, AZ, USA), which is a luminescence-based cell-free assay. In this assay, the reassembly of luciferase fragments is mediated by the interaction of a kinase with an active site-dependent probe. The competitive displacement of the probe by an inhibitor is measured by a change in luminescence signal. Percent activity of each kinase after exposure to IST5 (1 µM) is presented.

[3] = target: T2, AKT1 (Homo sapiens, UniProt P31749); experiment: Kinase Seeker luminescence cell-free assay; type: binding; conditions: percent activity of kinase after exposure to IST5 1 µM
T2 construct: purchased Reaction Biology (JAK1/2/3, TYK2); Luceome Biotechnologies KinaseSeeker (others)
T2 sequence (P31749 whole entry): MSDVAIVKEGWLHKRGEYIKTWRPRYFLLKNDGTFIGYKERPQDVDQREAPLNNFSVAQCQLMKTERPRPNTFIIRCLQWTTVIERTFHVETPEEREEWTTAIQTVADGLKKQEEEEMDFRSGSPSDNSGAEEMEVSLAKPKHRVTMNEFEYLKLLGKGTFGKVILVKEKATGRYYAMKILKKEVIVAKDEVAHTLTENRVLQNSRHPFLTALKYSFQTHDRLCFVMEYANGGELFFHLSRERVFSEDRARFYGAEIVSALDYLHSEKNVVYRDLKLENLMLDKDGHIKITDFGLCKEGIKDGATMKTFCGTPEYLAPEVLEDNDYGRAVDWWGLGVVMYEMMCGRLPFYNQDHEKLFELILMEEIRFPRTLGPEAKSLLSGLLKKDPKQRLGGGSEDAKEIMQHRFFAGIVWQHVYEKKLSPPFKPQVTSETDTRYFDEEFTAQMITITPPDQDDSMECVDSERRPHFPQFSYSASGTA
Method: as §1

[4] = target: T3, PDGFRA (Homo sapiens, UniProt P16234); experiment: Kinase Seeker luminescence cell-free assay; type: binding; conditions: percent activity of kinase after exposure to IST5 1 µM
T3 construct: purchased Reaction Biology (JAK1/2/3, TYK2); Luceome Biotechnologies KinaseSeeker (others)
T3 sequence (P16234 24-1089): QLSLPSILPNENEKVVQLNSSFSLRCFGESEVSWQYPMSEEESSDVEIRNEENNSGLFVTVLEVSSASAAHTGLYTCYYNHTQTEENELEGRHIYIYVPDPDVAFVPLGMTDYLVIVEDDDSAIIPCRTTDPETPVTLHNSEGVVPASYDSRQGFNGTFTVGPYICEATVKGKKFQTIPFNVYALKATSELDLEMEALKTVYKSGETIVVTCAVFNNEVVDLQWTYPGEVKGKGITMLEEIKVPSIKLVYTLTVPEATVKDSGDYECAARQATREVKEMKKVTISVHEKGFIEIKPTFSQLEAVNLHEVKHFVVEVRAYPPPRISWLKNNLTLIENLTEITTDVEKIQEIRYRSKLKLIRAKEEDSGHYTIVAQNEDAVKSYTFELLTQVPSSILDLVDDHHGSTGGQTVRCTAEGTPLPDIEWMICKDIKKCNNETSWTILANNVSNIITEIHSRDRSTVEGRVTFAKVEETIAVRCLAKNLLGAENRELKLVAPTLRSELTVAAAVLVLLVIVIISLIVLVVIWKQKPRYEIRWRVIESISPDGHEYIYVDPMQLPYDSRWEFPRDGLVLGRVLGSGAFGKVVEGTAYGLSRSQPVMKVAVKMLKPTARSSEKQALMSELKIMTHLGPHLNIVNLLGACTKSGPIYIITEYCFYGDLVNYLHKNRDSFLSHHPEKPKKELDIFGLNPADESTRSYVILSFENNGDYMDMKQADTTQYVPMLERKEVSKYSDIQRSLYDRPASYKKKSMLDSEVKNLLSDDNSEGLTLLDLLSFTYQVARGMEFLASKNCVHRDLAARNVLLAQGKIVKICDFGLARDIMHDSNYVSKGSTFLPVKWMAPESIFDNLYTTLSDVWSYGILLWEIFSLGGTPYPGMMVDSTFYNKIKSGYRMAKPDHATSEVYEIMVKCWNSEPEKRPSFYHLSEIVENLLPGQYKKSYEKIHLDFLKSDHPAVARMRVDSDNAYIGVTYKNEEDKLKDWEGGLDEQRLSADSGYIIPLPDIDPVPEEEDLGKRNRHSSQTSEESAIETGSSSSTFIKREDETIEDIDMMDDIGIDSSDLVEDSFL
Method: as §1

[5] = target: T4, TIE1 (Homo sapiens, UniProt P35590); experiment: Kinase Seeker luminescence cell-free assay; type: binding; conditions: percent activity of kinase after exposure to IST5 1 µM
T4 construct: purchased Reaction Biology (JAK1/2/3, TYK2); Luceome Biotechnologies KinaseSeeker (others)
Method: as §1

[6] = target: T5, CAMKK1 (Homo sapiens, UniProt Q8N5S9); experiment: Kinase Seeker luminescence cell-free assay; type: binding; conditions: percent activity of kinase after exposure to IST5 1 µM
T5 construct: purchased Reaction Biology (JAK1/2/3, TYK2); Luceome Biotechnologies KinaseSeeker (others)
T5 sequence (Q8N5S9 whole entry): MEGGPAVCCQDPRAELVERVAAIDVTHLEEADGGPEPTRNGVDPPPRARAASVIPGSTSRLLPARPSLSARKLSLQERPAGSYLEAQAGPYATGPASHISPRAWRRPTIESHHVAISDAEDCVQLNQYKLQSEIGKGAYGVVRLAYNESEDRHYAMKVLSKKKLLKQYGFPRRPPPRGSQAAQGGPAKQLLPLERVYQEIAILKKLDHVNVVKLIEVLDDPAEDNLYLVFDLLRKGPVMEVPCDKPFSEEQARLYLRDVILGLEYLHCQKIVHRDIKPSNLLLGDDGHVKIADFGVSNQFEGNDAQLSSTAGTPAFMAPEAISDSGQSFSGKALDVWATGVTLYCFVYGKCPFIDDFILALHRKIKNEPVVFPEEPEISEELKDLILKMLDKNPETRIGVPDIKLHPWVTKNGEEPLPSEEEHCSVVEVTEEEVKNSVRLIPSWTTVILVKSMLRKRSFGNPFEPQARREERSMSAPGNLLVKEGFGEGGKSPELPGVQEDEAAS
Method: as §1

[7] = target: T6, CAMK1D (Homo sapiens, UniProt Q8IU85); experiment: Kinase Seeker luminescence cell-free assay; type: binding; conditions: percent activity of kinase after exposure to IST5 1 µM
T6 construct: purchased Reaction Biology (JAK1/2/3, TYK2); Luceome Biotechnologies KinaseSeeker (others)
T6 sequence (Q8IU85 whole entry): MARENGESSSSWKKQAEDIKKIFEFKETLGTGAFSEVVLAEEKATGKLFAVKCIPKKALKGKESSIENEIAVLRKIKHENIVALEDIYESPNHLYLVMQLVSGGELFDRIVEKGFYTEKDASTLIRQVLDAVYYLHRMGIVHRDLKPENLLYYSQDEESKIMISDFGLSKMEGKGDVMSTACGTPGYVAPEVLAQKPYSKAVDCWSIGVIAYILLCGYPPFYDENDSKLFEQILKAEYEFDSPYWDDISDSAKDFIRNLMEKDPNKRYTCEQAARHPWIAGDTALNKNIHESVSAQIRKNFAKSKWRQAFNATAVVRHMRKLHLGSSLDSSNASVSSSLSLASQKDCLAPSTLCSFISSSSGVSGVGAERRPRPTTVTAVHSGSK
Method: as §1

[8] = target: T7, IGF1R (Homo sapiens, UniProt P08069); experiment: Kinase Seeker luminescence cell-free assay; type: binding; conditions: percent activity of kinase after exposure to IST5 1 µM
T7 construct: purchased Reaction Biology (JAK1/2/3, TYK2); Luceome Biotechnologies KinaseSeeker (others)
Method: as §1

[9] = target: T8, ABL2 (Homo sapiens, UniProt P42684); experiment: Kinase Seeker luminescence cell-free assay; type: binding; conditions: percent activity of kinase after exposure to IST5 1 µM
T8 construct: purchased Reaction Biology (JAK1/2/3, TYK2); Luceome Biotechnologies KinaseSeeker (others)
T8 sequence (P42684 whole entry): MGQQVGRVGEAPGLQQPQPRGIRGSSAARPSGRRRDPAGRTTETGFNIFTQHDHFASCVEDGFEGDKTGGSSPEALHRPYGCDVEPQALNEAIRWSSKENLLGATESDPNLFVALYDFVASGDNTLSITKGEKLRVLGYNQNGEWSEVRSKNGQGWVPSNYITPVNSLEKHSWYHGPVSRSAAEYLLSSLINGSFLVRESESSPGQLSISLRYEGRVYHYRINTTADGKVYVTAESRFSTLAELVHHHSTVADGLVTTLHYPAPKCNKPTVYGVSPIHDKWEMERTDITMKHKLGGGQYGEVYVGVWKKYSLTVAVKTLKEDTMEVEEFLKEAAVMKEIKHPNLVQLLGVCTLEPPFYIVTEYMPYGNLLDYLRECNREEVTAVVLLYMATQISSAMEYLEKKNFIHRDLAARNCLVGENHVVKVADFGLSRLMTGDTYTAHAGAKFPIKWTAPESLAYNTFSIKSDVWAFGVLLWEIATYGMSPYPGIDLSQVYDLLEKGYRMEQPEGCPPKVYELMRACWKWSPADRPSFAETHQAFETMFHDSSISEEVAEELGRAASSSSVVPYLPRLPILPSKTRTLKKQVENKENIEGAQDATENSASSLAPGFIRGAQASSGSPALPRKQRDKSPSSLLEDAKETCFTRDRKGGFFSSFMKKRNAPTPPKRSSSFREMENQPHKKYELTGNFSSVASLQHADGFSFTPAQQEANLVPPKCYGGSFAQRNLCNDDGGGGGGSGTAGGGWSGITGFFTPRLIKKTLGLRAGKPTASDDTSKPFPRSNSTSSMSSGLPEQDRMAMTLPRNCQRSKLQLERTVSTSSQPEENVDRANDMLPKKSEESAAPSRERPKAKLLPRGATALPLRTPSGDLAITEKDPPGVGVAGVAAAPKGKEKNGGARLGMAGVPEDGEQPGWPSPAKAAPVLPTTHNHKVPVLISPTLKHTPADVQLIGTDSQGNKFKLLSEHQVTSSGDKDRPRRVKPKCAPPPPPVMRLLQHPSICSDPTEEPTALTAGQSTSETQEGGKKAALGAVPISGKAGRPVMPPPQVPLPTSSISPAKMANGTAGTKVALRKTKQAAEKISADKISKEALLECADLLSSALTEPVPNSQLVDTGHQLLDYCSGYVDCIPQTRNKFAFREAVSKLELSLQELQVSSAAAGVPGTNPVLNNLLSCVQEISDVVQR
Method: as §1

[10] = target: T9, AKT3 (Homo sapiens, UniProt Q9Y243); experiment: Kinase Seeker luminescence cell-free assay; type: binding; conditions: percent activity of kinase after exposure to IST5 1 µM
T9 construct: purchased Reaction Biology (JAK1/2/3, TYK2); Luceome Biotechnologies KinaseSeeker (others)
T9 sequence (Q9Y243 whole entry): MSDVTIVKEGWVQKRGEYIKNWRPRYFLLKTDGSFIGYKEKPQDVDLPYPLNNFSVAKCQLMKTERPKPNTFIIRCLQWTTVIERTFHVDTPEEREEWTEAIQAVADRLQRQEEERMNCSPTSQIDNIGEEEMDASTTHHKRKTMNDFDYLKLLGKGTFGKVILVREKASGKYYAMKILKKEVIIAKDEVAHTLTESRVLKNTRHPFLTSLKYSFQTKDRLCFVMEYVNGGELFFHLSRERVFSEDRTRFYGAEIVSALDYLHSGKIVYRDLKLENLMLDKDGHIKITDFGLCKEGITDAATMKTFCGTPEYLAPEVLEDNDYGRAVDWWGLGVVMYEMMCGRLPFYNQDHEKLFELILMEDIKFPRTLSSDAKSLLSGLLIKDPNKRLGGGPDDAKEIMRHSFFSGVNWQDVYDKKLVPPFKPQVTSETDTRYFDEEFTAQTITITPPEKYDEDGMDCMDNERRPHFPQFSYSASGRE
Method: as §1

[11] = tested on: panel of 54 kinases; experiment: Cell-free kinase panels, overall; type: biochemical; conditions: 1 µM
Source text: Given that IST5 suppresses phosphorylation of Stat5 in PC cells, it is possible that IST5 inhibits the kinase(s) responsible for Stat5 phosphorylation and activation in PC cells. To evaluate if IST5 affects kinase activity in cancer cells, we tested kinase inhibitory activity of IST5 in two custom-tailored panels including 54 relevant kinases (Table 1), including Jak1, Jak2, Jak3, Tyk2, Abl1, Abl2, Lck, Fyn, Src and TrkB/C. In addition, we further tested if IST5 inhibits tyrosine phosphorylation of Jak1, Jak2, Jak3 or Tyk2 using a cell-based assay (Figure 5D), where phosphorylation of the kinase is indicative of enzymatic kinase activity. DU145 and CWR22Rv1 cells were treated with IST5 (6 µM) for 6 h followed by immunoprecipitation of Jak1, Jak2, Jak3 and Tyk2 and immunoblotting with anti-phospho-tyrosine antibody. […]
For Jak1, Jak2, Jak3 and Tyk2, a radiometric filtration binding assay was conducted by Reaction Biologicals (Malvern, PA, USA) (Table 1). […] For evaluation of the activity of the other kinases, the Kinase Seeker Technology was utilized (Luceome Biotechnologies, Tucson, AZ, USA), which is a luminescence-based cell-free assay. […] The competitive displacement of the probe by an inhibitor is measured by a change in luminescence signal. […]

[12] = tested on: patient-derived clinical PCs; design: method as in PMID 26026053, PMID 31548294; conditions: 3D tumor explant cultures; cited from earlier work

O=P(O)(O)OCC1OC(n2cnc3c(NCc4ccccc4)ncnc32)C(O)C1O (stereo not shown) [IST5]
inhibition of Stat5 phosphorylation ([1]; 2 µM, K562 cells): 75–90% | IC50 ([1]; read-out: IC50, inhibition of Stat5 phosphorylation, K562 CML cells): ~1.1 µM | Activity [2]: 93.4% | Activity [3]: 100.0% | Activity [4]: 100.0% | Activity [5]: 100.0% | Activity [6]: 94.2% | Activity [7]: 92.0% | Activity [8]: 100.0% | Activity [9]: 88.6% | Activity [10]: 95.8% | inhibitory activity against the kinases of Table 1 [11]: no significant inhibitory activity | apoptotic death in patient-derived clinical PCs ex vivo [12]: induce apoptotic death
